According to patent US11591596B2, “Compounds and compositions including phosphorothioated oligodeoxynucleotide, and methods of use thereof” (City of Hope, priority 2015, dated 2023):

What was measured:
[1] = tested on: Mouse CML leukemia stem cells (LSC, Lin-Sca-1+c-kit+Fit3-CD150+CD48-); assay: Apoptosis and cell growth of mouse CML leukemia stem cells; assay type: cell-based; conditions: combined with NIL, compared with CpG-SCR+NIL
Method: Mouse CML leukemia stem cells (LSC, Lin-Sca-1+c-kit+Fit3-CD150+CD48-) were sorted and treated with CpG-anti-miR-126 inhibitor or CpG-SCR (500 nM) for 48 hours, then furthered treated with miR126 inhibitor+NIL or SCR+NIL for 72 hours, then apoptosis and cell growth were measured.

[2] = tested on: Normal, cord blood, AML and CML CD34+ cells; assay: Uptake of CpG-anti-miR126 inhibitor-Cy3 in primary CD34+ cells, Cy3 by flow cytometry; assay type: cell-based, human; conditions: 500 nM; primary patients' AML and CML CD34+ cells
Method: FIGS. 2A-2D are flow cytometry histograms showing results of uptake tests in normal, cord blood, acute myeloid leukemia (AML), and chronic myeloid leukemia (CML) CD34+ cells. Normal (NL), cord blood (CB), AML and CML34+ cells were cultured with CpG-scramble RNA (500 nM) and CpG-miR126 inhibitor-Cy3 (500 nm) for 16 hours. FIG. 2A is a histogram showing uptake in NL/CB cells with 600 CpG siRNA. FIG. 2B is a histogram showing NL/CB cells with 500 CpG-siRNA. FIG. 2C is a histogram showing uptake in AML cells. FIG. 2D is a histogram showing uptake in CML cells. Uptake was measured by Cy3 expression in these cells by flow cytometry.
Normal, cord blood, AML and CML CD34+ cells were cultured with CpG-anti-miR126 inhibitor-Cy3 or anti-miR126 inhibitor-Cy3 for 16 hours, and the uptake was measured by Cy3 expression in the cells by flow cytometry (FIGS. 2A-2D). All tested cells internalized CpG-anti-miR126-Cy3 but not the anti-miR126-Cy3 with high efficiency.
Normal, cord blood, AML and CML CD34+ cells were cultured with CpG-scramble RNA (500 nM) and CpG-anti-miR126 inhibitor-Cy3 (500 nM) for 24 hours, and then miR126 and RNU44 (ctrl) expression in these cells were analyzed by Q-RT-PCR (FIG. 5). The miR126 expression levels were normalized to RNU44 and calculated by using the comparative 2^−ΔΔCt method.

human AML CD34+ cells = assay: Cell cycling, apoptosis and cell growth of AML CD34+ cells with Ara-c and Doxo; assay type: cell-based; conditions: 500 nM combined with Ara-c and Doxo
Method: AML CD34+ cells were cultured with CpG-anti-miR-126 or CpG-SCR (500 nM) for 48 hours, then furthered cultured with miR126 inh+Ara-c+Doxo or SCR+A+D for 72 hours, then cell cycling, apoptosis (FIG. 12B) and cell growth (FIG. 12C) were analyzed.

mouse CML LSC = assay: In vivo treatment of transplanted CML mice in combination with NIL; conditions: 5 mg/kg i.v. 4 times a week plus NIL 50 mg/kg daily by gavage, 3 weeks
Method: FIGS. 24A-24I. […] BM cells from SCL-tTA/BCR-ABL mice (CD45.2) were transplanted into congenic B6 mice (CD45.1, n=40) to generate a cohort of mice with CML-like disease. Following confirmation of CML development at 4 weeks after transplantation, mice were randomly divided into 4 groups (n=10 each) and treated with CpG-miR-126 inhibitor (5 mg/kg i.v. 4 times a week), CpG-scrRNA (5 mg/kg, i.v. 4 times a week), CpG-miR-126 inhibitor plus NIL (50 mg/kg, daily by gavage), and CpG-scrRNA plus NIL for 3 weeks. Percentage of donor CML cells in peripheral blood (PB) (FIG. 24A), spleen (FIG. 24B) and bone marrow (BM) (FIG. 24C), numbers of donor CML LSK in spleen (FIG. 24D) and BM (FIG. 24E), and numbers of donor CML long term hematopoietic stem cells (LTHSC) in spleen (FIG. 24F) and BM (FIG. 24G) after 3 weeks' treatment were measured. […] The recipient mice were monitored for 16 weeks for CML cell engraftment in blood and leukemia development by WBC count. Frequency of LIC was quantified using L-Calc software (FIG. 24I). […]
BM cells from SCL-tTA/BCR-ABL mice (CD45.2) were transplanted into congenic B6 mice (CD45.1, n=40) to generate a cohort of mice with CML-like disease. […] The recipient mice were monitored for 16 weeks for CML cell engraftment in blood and leukemia development by WBC count. Frequency of LIC was quantified using L-Calc software (FIG. 24I). […]

[3] = compared with Ara-c and Doxo alone

**Q.** How did the “apoptosis of LSC” value [1] turn out when “5′ G*G*T GCA TCG ATG CAGG*G*G* G*G (SEQ ID NO: 1) xxxxx mCmGmC mAmUmU mAmUmU mAmCmU mCmAmC mGmGmU mAmCmG mA (SEQ ID NO: 17) 3′ [CpG-anti-miR126]” was run?
**A.** The value was “significantly increased apoptosis”.

**Q.** And the “cell growth of LSC” value [1]?
**A.** The value was “significant reduction of cell growth”.

**Q.** What about the “internalization by primary cells” value [2] of the same substance?
**A.** Its value is “quickly internalized”.

**Q.** What about the cell growth (human AML CD34+ cells) of the same substance?
**A.** The cell growth was “reduction of cell growth”.

**Q.** What about the apoptosis (human AML CD34+ cells; [3]) of the same substance?
**A.** Its apoptosis is “significantly increased”.

**Q.** And the cell cycling (human AML CD34+ cells; [3])?
**A.** Its cell cycling is “significantly increased”.

**Q.** And the “elimination of mouse CML LSC” value (mouse CML LSC)?
**A.** Its value is “enhances elimination of mouse CML LSC”.
